# Reference: patent US9945843B2, “Methods for identifying compounds that inhibit G protein-coupled receptor (GPR84) agonist-stimulated chemotaxis” (GALAPAGOS NV, priority 2011, dated 2018)
# Test system: tobacco smoke-induced pulmonary inflammation
# Assay: Mouse tobacco smoke model
# Type: in vivo
# Settings: C57BL/6J mice, 4 daily tobacco smoke exposures; data not shown
# Excerpt: To investigate test compounds, animals are divided into several groups: intact (no treatment, n=5), diseased (TS; vehicle alone, n=10), Roflumilast as reference (TS; Roflumilast n=10), and the test compound (TS; […]=10). […] At the end of 4 days, the numbers of macrophages, epithelial cells, neutrophils and lymphocytes are counted in the BAL. BAL was further analyzed for gene expression and protein level. Lung tissue is dissected for histological analysis, gene expression and protein level measurement.
compound,measurement,value
O=C(Nc1c(Cl)cncc1Cl)c1ccc(OC(F)F)c(OCC2CC2)c1 [Roflumilast],percentage inhibition of neutrophil counts in BAL,around 60%
